Experimental findings from patent publication US10208007B2, “Use of strigolactones and strigolactone analogs for treating proliferative conditions” (The State of Israel, Ministry of Agriculture & Rural …, priority 2011, dated 2019) are described below.

One experiment has as its system HCT116 cells. Briefly: Annexin V / PI staining. It counts as cell-based, human. Conditions: 48 hours, from 3.6%. How it is done:
Cells were cultured for 48 hours under the same conditions as those used for the DNA content/cell cycle analysis. All the cells were collected and resuspended in 100 μl 1× Annexin V Binding Buffer (BD Biosciences, San Jose, Calif., USA). 2 μl FITC-Annexin V (BD Biosciences) was added and incubated for 10 min in the dark (room temperature). Cells were then stained with PI (Sigma, Saint Louis, Mo., USA) to a final concentration of 5 μg/ml and the cells were incubated at room temperature for 15 min in the dark. Then, 400 μl of Annexin V binding buffer were added and flow cytometry was performed using a BD FACSCalibur flow cytometer. Cells were considered to be apoptotic if they were Annexin V+/PI− (early apoptotic) and Annexin V+/PI+ (late apoptotic). Each analysis was performed using at least 20,000 events.
Chromosome condensation at mitosis is accompanied by phosphorylation of histone H3. Accordingly, in order to determine if cells were arresting at G2 or M phase, HCT116 cells were analyzed for pS10 Histone H3 following strigolactone analogs exposure. […] To further quantify whether the growth inhibition observed in-vitro following strigolactone treatment was due in part to apoptosis, HCT116 cells were dual stained with Annexin V and PI (Prodidium Iodide). Annexin V staining indicate the inversion of the inner leaflet of the plasma membrane an early event of apoptosis. Late apoptosis is characterized by loss of membrane integrity and cells become permeable to PI. […] Cells were incubated for 48 hours and then co-stained with annexin-V and PI (FIG. 12F). Following treatment with 10 ppm and 15 ppm MEB-55, the percentage of late apoptotic cell increased from 3.6% to 62% and 85% respectively (FIG. 12F, lower panel). […] Dual Annexin V/PI staining analysis was also carried out on two other colon cancer cell lines, (SW480, HT29) following strigolactone treatment. Increased apoptosis was also observed in these lines following MEB-55 treatment in a dose dependent manner (FIG. 12D).

Experiment [1] concerns Arabidopsis thaliana wild type root tips. Briefly: Root-tip structure and cellular morphology. It counts as in vivo. The conditions noted are these: WT seedlings. How it is done:
Seeds of homozygous lines of Arabidopsis thaliana wild type (WT; Columbia; Col-0) and max2-1 mutant (http://abrc.osu.edu/) were surface-sterilized and germinated on 1/2 Murashige and Skoog (MS) plates supplemented with 1% sucrose and solidified with 0.7% agar. Plates were incubated vertically in the dark at 4° C. for two days to synchronize germination. Three days after germination, seedlings were gently transferred using forceps to 1/2 MS plates containing various concentrations of GR-24 as a mixture of four diastereomers: (±)-GR-24 and (±)-2′-epi-GR-24. The root tip of the transferred seedling was marked on the plates. The plates remained unsealed to prevent accumulation of gases (e.g., ethylene), and were positioned in an upright 45° position, and incubated at 22° C. with a light intensity of […] m-2 s-1 provided by white fluorescent tubes and under a photoperiod of 16 hours exposure to light/8 hours in the dark for 6-12 days. […] GR-24, ST-357 and ST-362 were initially dissolved in acetone to give a 4.5 mM, 10 μM and 10 μM solutions, respectively, which were then further diluted with double-distilled sterile water (DDW). […] Where differences were recorded between non-treated and acetone controls, the comparison was made between GR-24, ST-357 and ST-362-treated and acetone-treated roots. […]

Another experiment deals with MCF-7. Briefly: Cell cycle analysis (propidium iodide, flow cytometry). It counts as cell-based, human. Conditions: 10 ppm, 48 hours. How it is done: (§1) Adherent cells were trypsinyzed, washed twice with PBS and filtered through a […] cell sieve. DNA content was assessed by flow cytometry. Cells were seeded at densities of 1.5×10^5 cells (MDA-MB-231, MDA-MB-436), or 4×10^5 cells (MCF-7 and MCF10A), or 2×10^5 cells (SW480, HT-29), or 5×10^5 cells (HCT116), per well in DMEM with 10% FBS in 6-well plate culture dishes. […] After 48 hours, cells were washed twice with PBS (pH 7.4), centrifuged at 360 g for 10 minutes at 4° C., and fixed in chilled ethanol (70%; v/v in PBS) with gentle vortex mixing. To determine their DNA contents, the cells were stained with 40 μg/ml propidium iodide (hereinafter PI) and analyzed using a FACSCalibur flow cytometer and CellQuest analysis software (Becton Dickinson, San Jose, Calif.). Where phosphoHistone-H3 staining was carried out, cells were incubated with polyclonal antibody against phosphoHistone H3 and then with secondary Goat anti-rabbit IgG-conjugated to FITC prior to PI staining.
(Flow cytometry measures light scatter and fluorescence of single cells or particles in a stream.)

The next experiment concerns MDA-MB-436. Described as above. It counts as cell-based, human. Conditions: 10 ppm, 48 hours. The protocol:
as §1

The test system of experiment [2] is breast cancer cells both luminal (estrogen receptor positive) and basal (estrogen receptor negative). Nature of the experiment: IC50 by number of cells per well versus control cultures. It counts as cell-based. How it is done: The IC50 values are defined herein as that concentration of active ingredient at which the number of cells per well at the end of the incubation period is only 50% of the number of cells in the control cultures. The IC50 values thus determined are, for the compounds of formula II, approximately from 0.1 to 50 μmoliliter.

On to `CC1=CC(O/C=C2\Cc3c(n(C)c4cc(-c5cccs5)ccc34)C2=O)OC1=O` (racemic) [MEB-55, (±) 2E-4-methyl-2-(4-methyl-5-oxo-2,5-dihydrofuran-2-yloxymethylene)-6-thiophen-2-yl-1,4-dihydro-2H-cyclopenta[b]indol-3-one], for which the entries for the “Percentage of late apoptotic cells (Annexin V+/PI+)” value with HCT116 cells (10 ppm) and in the experiment with HCT116 cells (15 ppm) were 62% and 85%, respectively.

For `CC1=C[C@H](O/C=C2/C(=O)O[C@@H]3c4ccccc4C[C@H]23)OC1=O` (relative stereo) [GR-24, (3aR*,8bS*,E)-3-(((R*)-4-methyl-5-oxo-2,5-dihydrofuran-2-yloxy)methylene)-3,3a,4,8b-tetrahydro-2H-indeno[1,2-b]furan-2-one], the Root tip morphology result in experiment [1] (13.5 μM exogenously supplied) is “deformation of the root tips”. Moreover, the “Starch granules in the columella cells” value in experiment [1] (27 μM) is “abolished the starch granules”. Besides, in the experiment on MCF-7, the “Change in the subG1 fraction” value is given as “no change”. Moreover, the “Increase in the sub-G1/apoptotic fraction compared to vehicle” value in the experiment on MDA-MB-436 is listed as 3.4 fold. The IC50 value result in experiment [2] was “in the range of micromolar concentration”.
